In US9605004B2, “Chemical compounds” (SYNGENTA LIMITED, priority 2013, dated 2017):

Assays:
[1] = test system: a variety of test species; assay: Post-emergence herbicidal activity (Example 8b, Table 3); assay type: in vivo; details: application post-emergence, rate 1000 g/ha, evaluated after 13 days, scale 0-5; for Herbicidal damage score, ABUTH: Abutilon theophrasti; for Herbicidal damage score, ALOMY: Alopecurus myosuroides; for Herbicidal damage score, AMARE: Amaranthus retroflexus; for Herbicidal damage score, ECHCG: Echinochloa crus-galli; for Herbicidal damage score, SETFA: Setaria faberi; for Herbicidal damage score, ZEAMX: Zea mays
Protocol: (§1) Seeds of a variety of test species were sown in standard soil in pots. After 8 days cultivation (post-emergence) under controlled conditions in a glasshouse (at 24/16° C., day/night; 14 hours light; 65% humidity), the plants were sprayed with an aqueous spray solution derived from the formulation of the technical active ingredient in acetone/water (50:50) solution containing 0.5% Tween 20 (polyoxyethelyene sorbitan monolaurate, CAS RN 9005-64-5). The test plants were then grown in a glasshouse under controlled conditions (at 24/16° C., day/night; 14 hours light; 65% humidity) and watered twice daily. After 13 days, the test was evaluated (5=total damage to plant; 0=no damage to plant).

[2] = test system: a variety of test species; assay: Pre-emergence herbicidal activity (Example 8a, Table 2); assay type: in vivo; set-up: key: 0 = no damage to plant, 5 = total damage to plant; details: application pre-emergence, rate 1000 g/ha, evaluated after 13 days
Protocol: as §1, with “After” for “After 8 days”, “for one day (pre-emergence)” for “(post-emergence)”

SMILES: CC1=C(Cl)C(=O)N(c2cc(C#CC(C)(C)C)n(C)n2)C1O (stereo not drawn) [Compound B25]
- Herbicidal damage score, ABUTH [1]: 3
- Herbicidal damage score, ALOMY [1]: 1
- Herbicidal damage score, AMARE [1]: 3
- Herbicidal damage score, ECHCG [1]: 1
- Herbicidal damage score, SETFA [1]: 1
- Herbicidal damage score, ZEAMX [1]: 0
- Pre-emergence herbicidal activity, damage score ABUTH [2]: 0
- Pre-emergence herbicidal activity, damage score ALOMY [2]: 0
- Pre-emergence herbicidal activity, damage score AMARE [2]: 2
- Pre-emergence herbicidal activity, damage score ECHCG [2]: 0
- Pre-emergence herbicidal activity, damage score SETFA [2]: 0
- Pre-emergence herbicidal activity, damage score ZEAMX [2]: 0

SMILES: CC1=C(Cl)C(=O)N(c2cc(C(F)(F)F)[nH]n2)C1O (stereo not drawn) [Compound A2]
- Herbicidal damage score, ABUTH [1]: 5
- Herbicidal damage score, ALOMY [1]: 4
- Herbicidal damage score, AMARE [1]: 3
- Herbicidal damage score, ECHCG [1]: 4
- Herbicidal damage score, SETFA [1]: 5
- Herbicidal damage score, ZEAMX [1]: 1
- Pre-emergence herbicidal activity, damage score ABUTH [2]: 5
- Pre-emergence herbicidal activity, damage score ALOMY [2]: 0
- Pre-emergence herbicidal activity, damage score AMARE [2]: 5
- Pre-emergence herbicidal activity, damage score ECHCG [2]: 3
- Pre-emergence herbicidal activity, damage score SETFA [2]: 0
- Pre-emergence herbicidal activity, damage score ZEAMX [2]: 2

SMILES: CC1=C(Cl)C(=O)N(c2cc(C#CC(C)C)n(C)n2)C1O (stereo not drawn) [Compound B29]
- Herbicidal damage score, ABUTH [1]: 0
- Herbicidal damage score, ALOMY [1]: 0
- Herbicidal damage score, AMARE [1]: 0
- Herbicidal damage score, ECHCG [1]: 2
- Herbicidal damage score, SETFA [1]: 2
- Herbicidal damage score, ZEAMX [1]: 0
- Pre-emergence herbicidal activity, damage score ABUTH [2]: 0
- Pre-emergence herbicidal activity, damage score ALOMY [2]: 0
- Pre-emergence herbicidal activity, damage score AMARE [2]: 2
- Pre-emergence herbicidal activity, damage score ECHCG [2]: 0
- Pre-emergence herbicidal activity, damage score SETFA [2]: 0
- Pre-emergence herbicidal activity, damage score ZEAMX [2]: 0

SMILES: COC1=C(OC)C(O)N(c2cc3n(n2)CCCC3(C)C)C1=O (stereo not drawn) [Compound W2]
- Herbicidal damage score, ABUTH [1]: 5
- Herbicidal damage score, ALOMY [1]: 5
- Herbicidal damage score, AMARE [1]: 5
- Herbicidal damage score, ECHCG [1]: 5
- Herbicidal damage score, SETFA [1]: 5
- Herbicidal damage score, ZEAMX [1]: 5
- Pre-emergence herbicidal activity, damage score ABUTH [2]: 5
- Pre-emergence herbicidal activity, damage score ALOMY [2]: 4
- Pre-emergence herbicidal activity, damage score AMARE [2]: 5
- Pre-emergence herbicidal activity, damage score ECHCG [2]: 4
- Pre-emergence herbicidal activity, damage score SETFA [2]: 5
- Pre-emergence herbicidal activity, damage score ZEAMX [2]: 4

SMILES: CC1=C(Br)C(=O)N(c2cc(C(C)(C)C)n(C)n2)C1O (stereo not drawn) [Compound J2]
- Herbicidal damage score, ABUTH [1]: 5
- Herbicidal damage score, ALOMY [1]: 5
- Herbicidal damage score, AMARE [1]: 5
- Herbicidal damage score, ECHCG [1]: 5
- Herbicidal damage score, SETFA [1]: 5
- Herbicidal damage score, ZEAMX [1]: 4
- Pre-emergence herbicidal activity, damage score ABUTH [2]: 5
- Pre-emergence herbicidal activity, damage score ALOMY [2]: 3
- Pre-emergence herbicidal activity, damage score AMARE [2]: 5
- Pre-emergence herbicidal activity, damage score ECHCG [2]: 5
- Pre-emergence herbicidal activity, damage score SETFA [2]: 4
- Pre-emergence herbicidal activity, damage score ZEAMX [2]: 2

SMILES: CC1=C(Cl)C(=O)N(c2nn(C)c(C(C)(C)C)c2C#N)C1O (stereo not drawn) [Compound D2]
- Herbicidal damage score, ABUTH [1]: 5
- Herbicidal damage score, ALOMY [1]: 4
- Herbicidal damage score, AMARE [1]: 5
- Herbicidal damage score, ECHCG [1]: 5
- Herbicidal damage score, SETFA [1]: 5
- Herbicidal damage score, ZEAMX [1]: 3
- Pre-emergence herbicidal activity, damage score ABUTH [2]: 5
- Pre-emergence herbicidal activity, damage score ALOMY [2]: 4
- Pre-emergence herbicidal activity, damage score AMARE [2]: 5
- Pre-emergence herbicidal activity, damage score ECHCG [2]: 4
- Pre-emergence herbicidal activity, damage score SETFA [2]: 4
- Pre-emergence herbicidal activity, damage score ZEAMX [2]: 2

SMILES: CC1=C(Cl)C(=O)N(c2cc(S(C)(=O)=O)n(C)n2)C1O (stereo not drawn) [Compound B38]
- Herbicidal damage score, ABUTH [1]: 5
- Herbicidal damage score, ALOMY [1]: 5
- Herbicidal damage score, AMARE [1]: 5
- Herbicidal damage score, ECHCG [1]: 5
- Herbicidal damage score, SETFA [1]: 5
- Herbicidal damage score, ZEAMX [1]: 5
- Pre-emergence herbicidal activity, damage score ABUTH [2]: 5
- Pre-emergence herbicidal activity, damage score ALOMY [2]: 4
- Pre-emergence herbicidal activity, damage score AMARE [2]: 5
- Pre-emergence herbicidal activity, damage score ECHCG [2]: 5
- Pre-emergence herbicidal activity, damage score SETFA [2]: 5
- Pre-emergence herbicidal activity, damage score ZEAMX [2]: 4

SMILES: CC1=C(Cl)C(=O)N(c2cc(C(F)(F)F)n(CC(F)(F)F)n2)C1O (stereo not drawn) [Compound C5]
- Herbicidal damage score, ABUTH [1]: 4
- Herbicidal damage score, ALOMY [1]: 5
- Herbicidal damage score, AMARE [1]: 5
- Herbicidal damage score, ECHCG [1]: 5
- Herbicidal damage score, SETFA [1]: 5
- Herbicidal damage score, ZEAMX [1]: 3
- Pre-emergence herbicidal activity, damage score ABUTH [2]: 2
- Pre-emergence herbicidal activity, damage score ALOMY [2]: 3
- Pre-emergence herbicidal activity, damage score AMARE [2]: 3
- Pre-emergence herbicidal activity, damage score ECHCG [2]: 4
- Pre-emergence herbicidal activity, damage score SETFA [2]: 4
- Pre-emergence herbicidal activity, damage score ZEAMX [2]: 2

SMILES: CCn1nc(N2C(=O)C(Cl)=C(C)C2O)c2c1C(C)(C)CC2 (stereo not drawn) [Compound C3]
- Herbicidal damage score, ABUTH [1]: 5
- Herbicidal damage score, ALOMY [1]: 4
- Herbicidal damage score, AMARE [1]: 5
- Herbicidal damage score, ECHCG [1]: 5
- Herbicidal damage score, SETFA [1]: 5
- Herbicidal damage score, ZEAMX [1]: 4
- Pre-emergence herbicidal activity, damage score ABUTH [2]: 5
- Pre-emergence herbicidal activity, damage score ALOMY [2]: 4
- Pre-emergence herbicidal activity, damage score AMARE [2]: 5
- Pre-emergence herbicidal activity, damage score ECHCG [2]: 5
- Pre-emergence herbicidal activity, damage score SETFA [2]: 4
- Pre-emergence herbicidal activity, damage score ZEAMX [2]: 2

SMILES: CCn1nc(N2C(=O)C(Cl)=C(C)C2O)c2c1C(C)(C)CC2 (stereo not drawn) [Compound E1]
- Herbicidal damage score, ABUTH [1]: 5
- Herbicidal damage score, ALOMY [1]: 4
- Herbicidal damage score, AMARE [1]: 5
- Herbicidal damage score, ECHCG [1]: 5
- Herbicidal damage score, SETFA [1]: 5
- Herbicidal damage score, ZEAMX [1]: 4
- Pre-emergence herbicidal activity, damage score ABUTH [2]: 5
- Pre-emergence herbicidal activity, damage score ALOMY [2]: 4
- Pre-emergence herbicidal activity, damage score AMARE [2]: 5
- Pre-emergence herbicidal activity, damage score ECHCG [2]: 5
- Pre-emergence herbicidal activity, damage score SETFA [2]: 4
- Pre-emergence herbicidal activity, damage score ZEAMX [2]: 2

SMILES: CC1=C(Br)C(=O)N(c2cc3n(n2)CCSC3(C)C)C1O (stereo not drawn) [Compound M3]
- Herbicidal damage score, ABUTH [1]: 5
- Herbicidal damage score, ALOMY [1]: 5
- Herbicidal damage score, AMARE [1]: 5
- Herbicidal damage score, ECHCG [1]: 5
- Herbicidal damage score, SETFA [1]: 5
- Herbicidal damage score, ZEAMX [1]: 1
- Pre-emergence herbicidal activity, damage score ABUTH [2]: 4
- Pre-emergence herbicidal activity, damage score ALOMY [2]: 3
- Pre-emergence herbicidal activity, damage score AMARE [2]: 5
- Pre-emergence herbicidal activity, damage score ECHCG [2]: 3
- Pre-emergence herbicidal activity, damage score SETFA [2]: 2
- Pre-emergence herbicidal activity, damage score ZEAMX [2]: 0
